Experimental data from patent US11337970B2, “Inhibitors of indoleamine 2,3-dioxygenase and methods of their use” (BRISTOL-MYERS SQUIBB COMPANY, priority 2016, dated 2022).

Columns and labels:
human IDO1 = biological target: T1, human IDO1 (Homo sapiens, UniProt P14902); experiment: IDO inhibition assay in HEK293 cells stably expressing human IDO1 (kynurenine, Ehrlich reagent); assay type: cell-based; settings: 20 hours incubation, absorbance at 490 nm, read-out: IDO1 HEK Human IC50
T1 construct: expressed in transfected cells
T1 sequence (P14902 whole entry): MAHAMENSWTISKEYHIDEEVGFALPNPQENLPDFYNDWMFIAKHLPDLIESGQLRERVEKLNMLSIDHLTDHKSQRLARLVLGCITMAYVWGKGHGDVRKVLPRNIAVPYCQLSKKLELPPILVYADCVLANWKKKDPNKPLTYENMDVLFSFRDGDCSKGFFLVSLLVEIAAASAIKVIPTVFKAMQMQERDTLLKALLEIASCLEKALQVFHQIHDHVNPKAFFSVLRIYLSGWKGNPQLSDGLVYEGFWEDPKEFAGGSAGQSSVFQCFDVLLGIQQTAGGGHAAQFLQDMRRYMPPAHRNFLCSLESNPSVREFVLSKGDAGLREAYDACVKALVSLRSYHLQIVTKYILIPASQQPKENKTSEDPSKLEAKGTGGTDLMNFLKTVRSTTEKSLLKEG
Experimental: HEK293 cells were transfected with a pCDNA-based mammalian expression vector harboring human IDO1 cDNA (NM 002164.2) by electroporation. They were cultured in medium (DMEM with 10% FBS) containing 1 mg/ml G418 for two weeks. Clones of HEK293 cells that stably expressed human IDO1 protein were selected and expanded for IDO inhibition assay.
The human IDO1/HEK293 cells were seeded at 10,000 cells per 50 μL per well with RPMI/phenol red free media contains 10% FBS in a 384-well black wall clear bottom tissue culture plate (Matrix Technologies LLC) 100 nL of certain concentration of compound was then added to each well using ECHO liquid handling systems. The cells were incubated for 20 hours in 37° C. incubator with 5% CO2.
The compound treatments were stopped by adding trichloroacetic acid (Sigma-Aldrich) to a final concentration at 0.2%. The cell plate was further incubated at 50° C. for 30 minute. The equal volume supernatant (20 μL) and 0.2% (w/v) Ehrlich reagent (4-dimethylaminobenzaldehyde, Sigma-Aldrich) in glacial acetic acid were mixed in a new clear bottom 384-well plate. This plate was then incubated at room temperature for 30 minute. The absorbance at 490 nm was measured on Envision plate reader.
Compound IC50 values were calculated using the counts of 500 nM of a reference standard treatment as one hundred percent inhibition, and counts of no compound but DMSO treatment as zero percent inhibition.

[1] = biological target: T2, indoleamine 2,3-dioxygenase (IDO) (Homo sapiens, UniProt P14902); experiment: HeLa cell-based indoleamine 2,3-dioxygenase (IDO) assay (kynurenine production); settings: HeLa cells, IFNγ 25 ng/mL, 48 hour incubation, absorbance at 480 nm
T2 construct: host or cells: HeLa cells stimulated with IFNγ (25 ng/mL)
T2 sequence (P14902 whole entry): as above

IC50 (human IDO1) | IC50 [1] | Compound
40.9 nM | 40.9 nM | C[C@@H](Nc1nc2ccc(Cl)cc2o1)[C@H]1CC[C@@H](c2ccnc3ccc(F)cc32)CC1 [Example 11, 6-chloro-N-((R)-1-((cis)-4-(6-fluoroquinolin-4-yl)cyclohexyl)ethyl)benzo[d]oxazol-2-amine]
2 nM | 2.8 nM | C=CC[C@@H](c1nc2ccc(Cl)cc2[nH]1)[C@H]1CC[C@@H](c2ccnc3ccc(F)cc32)CC1 [Example 32, 4-((1S,4s)-4-((R)-1-(6-chloro-1H-benzo[d]imidazol-2-yl)but-3-en-1-yl)cyclohexyl)-6-fluoroquinoline]
